Laboratory results from patent US20030180294A1, “Methods of extending corneal graft survival” (priority 2002, published 2003).

Legend:
[1] = test system: corneal transplants in the Lewis/Wistar-Furth combination; experiment: rat model of keratoplasty, corneal graft survival; format: in vivo; conditions: Lewis cornea to Wistar-Furth recipient, systemic 0.5 to 200 mg/kg/day or eye drop 0.05% to 5.0%, versus vehicle (rejection on average at day 30)
Method: Grafts are prepared and transferred according to the well-characterized rat model of keratoplasty with transplantation of corneas from Lewis strain rats to Wistar-Furth recipients (Callanan et al., Transplantation 45:437-443 (1988)). Each treatment group administered vehicle or test agent includes nine to fourteen rats. Grafts are observed clinically and scored three times per week for signs of rejection according to the criteria in Callanan et al., supra, 1988. Day 60 following surgery represents a two-fold prolongation in the expected mean survival time for corneal transplants in the Lewis/Wistar-Furth combination and therefore is selected as an advantageous time for terminating treatment. Rats bearing grafts not rejected by day 60 are observed for an additional 14 days to determine if the host's immune system has been tolerized. At this time, 80% of the grafted eyes are snap frozen for cryostat sectioning, and the remaining 20% of the eyes are fixed in formalin for H & E staining.
The VEGFR-3 tyrosine kinase inhibitor MAE87, MAE106 or MAZ51 is administered systemically at various concentrations, ranging from 0.5 to 200 mg/kg/day. In other animals, the compound is administered as an eye drop solution in various concentrations ranging from 0.05% to 5.0% and administered as various frequencies (once per day, two times per day and three times per day).

VEGFR-3 = VEGFR-3 (Homo sapiens, UniProt P35916); conditions: VEGF-C and VEGF-D induced; cited from earlier work
Sequence of VEGFR-3 (P35916 25-1363, species assumed): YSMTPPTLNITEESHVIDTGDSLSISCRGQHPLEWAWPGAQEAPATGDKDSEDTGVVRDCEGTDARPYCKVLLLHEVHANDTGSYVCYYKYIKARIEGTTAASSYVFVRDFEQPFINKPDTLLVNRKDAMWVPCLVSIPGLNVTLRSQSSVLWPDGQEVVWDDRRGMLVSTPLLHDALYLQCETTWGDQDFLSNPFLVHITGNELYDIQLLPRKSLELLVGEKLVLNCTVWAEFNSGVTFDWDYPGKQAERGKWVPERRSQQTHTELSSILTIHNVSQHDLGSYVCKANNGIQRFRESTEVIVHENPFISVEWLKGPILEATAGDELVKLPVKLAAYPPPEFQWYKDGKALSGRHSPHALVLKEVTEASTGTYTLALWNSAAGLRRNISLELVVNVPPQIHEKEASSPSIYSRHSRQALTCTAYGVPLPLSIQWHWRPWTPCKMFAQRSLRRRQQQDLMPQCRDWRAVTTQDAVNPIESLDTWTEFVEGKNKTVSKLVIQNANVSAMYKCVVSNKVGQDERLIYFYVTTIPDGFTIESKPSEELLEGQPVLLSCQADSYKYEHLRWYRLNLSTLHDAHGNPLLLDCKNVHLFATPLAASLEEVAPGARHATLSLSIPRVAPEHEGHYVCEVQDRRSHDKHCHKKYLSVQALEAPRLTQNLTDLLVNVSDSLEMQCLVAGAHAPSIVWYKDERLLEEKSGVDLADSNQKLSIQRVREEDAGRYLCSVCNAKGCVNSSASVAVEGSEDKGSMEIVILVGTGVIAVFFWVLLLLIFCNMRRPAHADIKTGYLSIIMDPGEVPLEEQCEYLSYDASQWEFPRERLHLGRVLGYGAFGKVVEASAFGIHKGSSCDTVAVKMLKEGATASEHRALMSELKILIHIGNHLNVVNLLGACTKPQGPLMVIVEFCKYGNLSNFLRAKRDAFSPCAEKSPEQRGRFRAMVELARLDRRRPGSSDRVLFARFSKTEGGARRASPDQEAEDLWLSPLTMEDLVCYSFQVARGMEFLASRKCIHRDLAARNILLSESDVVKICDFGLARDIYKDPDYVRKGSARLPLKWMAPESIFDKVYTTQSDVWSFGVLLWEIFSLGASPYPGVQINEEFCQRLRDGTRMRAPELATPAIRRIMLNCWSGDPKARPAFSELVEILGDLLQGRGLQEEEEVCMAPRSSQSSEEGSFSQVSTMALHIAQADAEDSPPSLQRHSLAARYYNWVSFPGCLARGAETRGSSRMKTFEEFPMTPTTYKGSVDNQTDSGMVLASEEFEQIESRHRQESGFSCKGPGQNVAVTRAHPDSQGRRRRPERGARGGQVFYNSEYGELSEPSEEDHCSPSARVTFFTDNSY

| SMILES | mean graft survival (delay in evidence of graft rejection) [1] | VEGFR-3 kinase activity versus VEGFR-2 (specificity) (VEGFR-3) |
| --- | --- | --- |
| O=C1Nc2ccccc2C1=Cc1ccc(O)cc1O [MAE87, 3(2,4-dihydroxy-benzylidene)-1,3-dihydro-indol-2-one] | increased mean graft survival |  |
| COc1ccc(C=C2C(=O)Nc3ccccc32)cc1F [MAE106, 3-(3-fluoro-4-methoxy-benzylidene)-1,3-dihydro-indol-2-one] | increased mean graft survival | differentially block VEGF-C and VEGF-D induced VEGFR-3 kinase activity compared to that of VEGFR-2 |
| CN(C)c1ccc(C=C2C(=O)Nc3ccccc32)c2ccccc12 [MAZ51, 3-(4-dimethylamino-naphthalen-1-ylmethylene)-1,3-dihydro-indol-2-one] | increased mean graft survival | differentially block VEGF-C and VEGF-D induced VEGFR-3 kinase activity compared to that of VEGFR-2 |
